For orientation: pIC50 means the negative decadic logarithm of the IC50, by convention in mol/L. The LD50 is the dose at which mortality reaches 50%. The pKi is the Ki on a negative log10 scale, so that one unit is a factor of ten. A higher pKi goes with a low Ki.

pIC50, pKi: −log10 of the molar value.

Here are results for six compounds from ChEMBL document CHEMBL3621133, “Macrocyclic derivatives of 6-methyluracil as ligands of the peripheral anionic site of acetylcholinesterase” (Medchemcomm, 2014).

Data set [1] addresses T1, Acetylcholinesterase (Homo sapiens, UniProt P22303). Briefly: Inhibition of AChE from human erythrocytes.
The next data set concerns the target Cholinesterase (Homo sapiens, UniProt P06276). Briefly: Inhibition of BChE from human plasma.
For data set [2], the system named is Rattus norvegicus. In words: […] in muscle action potential decrement in rat experimental autoimmune model of myasthenia gravis at 0.004 mg/kg, ip (reference value: 67.3 +/- 2.7%). The class given is functional.
Data set [3] deals with Rattus norvegicus. Briefly: […] in muscle action potential decrement in rat experimental autoimmune model of myasthenia gravis at 0.008 mg/kg, ip (reference value: 67.3 +/- 2.7%). The data set is classed as functional.
Data set [4] can be described thus: Toxicity in ip dosed rat. The data set is classed as organism-based. As to conditions: in vivo.
In data set [5] the target is T1, Acetylcholinesterase. In words: Reversible inhibition of AChE from human erythrocytes by Lineweaver-Burk plot.
Data set [6] has as its system Rattus norvegicus. In words: […] in muscle action potential decrement in rat experimental autoimmune model of myasthenia gravis at 0.1 mg/kg, ip (reference value: 67.3 +/- 2.7%). The class given is functional.
Data set [7] deals with Rattus norvegicus. Briefly: […] in muscle action potential decrement in rat experimental autoimmune model of myasthenia gravis at 0.3 mg/kg, ip (reference value: 67.3 +/- 2.7%). The data set is classed as functional.

Sequence of Cholinesterase (P06276 whole entry): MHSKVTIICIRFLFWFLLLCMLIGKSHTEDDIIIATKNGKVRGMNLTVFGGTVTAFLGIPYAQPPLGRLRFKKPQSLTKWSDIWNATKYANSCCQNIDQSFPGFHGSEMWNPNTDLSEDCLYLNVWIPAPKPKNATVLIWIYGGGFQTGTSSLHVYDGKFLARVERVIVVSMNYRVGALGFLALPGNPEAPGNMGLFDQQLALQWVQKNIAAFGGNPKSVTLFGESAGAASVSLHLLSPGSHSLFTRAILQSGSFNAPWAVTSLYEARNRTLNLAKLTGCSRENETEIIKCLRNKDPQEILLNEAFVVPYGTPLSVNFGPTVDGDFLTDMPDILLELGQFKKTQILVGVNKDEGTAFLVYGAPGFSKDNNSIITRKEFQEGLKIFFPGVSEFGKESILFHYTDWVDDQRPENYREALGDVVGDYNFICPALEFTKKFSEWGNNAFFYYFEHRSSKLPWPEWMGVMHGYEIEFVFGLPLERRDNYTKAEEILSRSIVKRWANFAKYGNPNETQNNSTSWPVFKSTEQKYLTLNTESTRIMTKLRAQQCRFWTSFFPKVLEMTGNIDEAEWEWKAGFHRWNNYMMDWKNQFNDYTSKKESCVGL
T1 sequence (P22303 whole entry): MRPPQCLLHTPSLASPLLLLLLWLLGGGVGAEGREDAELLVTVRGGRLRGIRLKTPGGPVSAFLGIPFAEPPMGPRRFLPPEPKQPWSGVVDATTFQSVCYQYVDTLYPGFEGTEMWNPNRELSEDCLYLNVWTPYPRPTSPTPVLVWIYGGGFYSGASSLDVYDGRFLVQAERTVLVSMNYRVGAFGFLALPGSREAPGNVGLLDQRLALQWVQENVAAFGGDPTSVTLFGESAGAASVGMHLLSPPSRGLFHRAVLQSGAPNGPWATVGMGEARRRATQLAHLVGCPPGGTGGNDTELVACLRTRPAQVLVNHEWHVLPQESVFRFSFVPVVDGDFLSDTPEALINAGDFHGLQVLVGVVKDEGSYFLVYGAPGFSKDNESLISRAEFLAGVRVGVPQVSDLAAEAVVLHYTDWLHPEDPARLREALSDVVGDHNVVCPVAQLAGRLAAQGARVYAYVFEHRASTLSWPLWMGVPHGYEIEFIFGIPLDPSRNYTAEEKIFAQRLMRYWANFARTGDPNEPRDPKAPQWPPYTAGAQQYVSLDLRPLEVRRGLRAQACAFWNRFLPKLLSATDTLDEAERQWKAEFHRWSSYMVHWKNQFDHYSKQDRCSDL

For `CC[N+](CC)(CCCCCn1c(C)cc(=O)n(CCCCC[N+](CC)(CC)Cc2ccccc2[N+](=O)[O-])c1=O)Cc1ccccc1[N+](=O)[O-].[Br-].[Br-]`, the pIC50 against Acetylcholinesterase [1] was 9.85; against Cholinesterase, 5.00. For the same compound, the results for the Activity in the data set with Rattus norvegicus [2] and in the data set with Rattus norvegicus [3] were 83.25% and 95.41%, respectively. The compound further had an LD50 in data set [4] of 0.008 mg/kg. The compound also showed a pKi on Acetylcholinesterase [5] of 10.10.

Consider `CC[N+]1(Cc2ccccc2[N+](=O)[O-])CCCCCC[N+](CC)(Cc2ccccc2[N+](=O)[O-])CCCCCn2c(=O)cc(C)n(c2=O)CCCCC1` (stereo not given), for which the pIC50 on Acetylcholinesterase [1] was 7.23; at Cholinesterase it was 5.04.

Turning to `CC[N+]1(Cc2ccccc2[N+](=O)[O-])CCCCCn2c(C)cc(=O)n(c2=O)CCCCC[N+](CC)(Cc2ccccc2[N+](=O)[O-])Cc2ccc(cc2)C1.[Br-].[Br-]` (stereo not given), the pIC50 at Acetylcholinesterase [1] was 8.15; against Cholinesterase it was 5.92. For the same compound, the Activity is 75% in the data set with Rattus norvegicus [6] and 95.4% in the data set on Rattus norvegicus [7]. For the same compound, the LD50 in data set [4] worked out at 15.5 mg/kg. Besides, the negative-log Ki (pKi) at Acetylcholinesterase [5] was 7.30.

With `CC[N+]1(Cc2ccccc2[N+](=O)[O-])CCCCCn2c(C)cc(=O)n(c2=O)CCCCC[N+](CC)(Cc2ccccc2[N+](=O)[O-])CCCCCn2c(=O)cc(C)n(c2=O)CCCCC1` (stereo not given), the pIC50 against Acetylcholinesterase [1] was 6.89; against Cholinesterase, 5.00.

With `CC[N+]1(Cc2ccccc2[N+](=O)[O-])CCCCCn2c(C)c3c(=O)n(c2=O)CCCCC[N+](CC)(Cc2ccccc2[N+](=O)[O-])CCCCCn2c(C)c(c(=O)n(c2=O)CCCCC1)C3` (stereo not given), the values for the pIC50 against Acetylcholinesterase [1] and on Cholinesterase were 5.40 and 4.70, respectively.

Take `CN(C)C(=O)Oc1ccc[n+](C)c1.[Br-]` [PYRIDOSTIGMINE BROMIDE]: in the data set on Rattus norvegicus [6], the Activity was 91.3%. This compound also showed an LD50 in data set [4] of 2.7 mg/kg.
